Where a name gives a salt, the structure may show the parent alone. Read-outs that look alike come from different tables or passages of the source.
Key:
[1] = tested on: sGFP::ATZ; assay: Hit compound characterization: dose-response in the sGFP::ATZ HCS assay; format: in vivo, C. elegans; set-up: key to dose-dependent response: c: Compound demonstrated a dose-dependent response.; Compound failed to demonstrate a dose-dependent response; settings: for degradation of aggregated ATZ protein: Caenorhabditis elegans model system; for dose-dependent response: retest at 0-100 μM, 24 or 48 hours
Experimental: Imaging of animals using the ArrayScan VTI: Prior to imaging, worms were anesthetized by adding 30 μl of 0.02 M NaN3 in PBS to each well. Plates were resealed, inverted twice, and incubated for 5 minutes at room temperature. Images were acquired with the ArrayScan VTI HCS Reader fitted with a 2.5× objective and a 0.63× coupler using a 2-channel (TRITC and GFP) assay. Real-time analysis was performed using the SpotDetector BioApplication optimized to quantify fluorescent protein expression in C. elegans. Image acquisition and analysis of a 384-well plate was completed in <45 minutes. The total number of animals in the well was determined by counting the number of red heads (Pmyo-2mRFP) in the TRITC channel. Total spot area or total spot intensity was determined by quantifying the GFP-positive spots in the GFP channel. Total spot area or total spot intensity per animal was determined by dividing the values from the GFP channel by that from the TRITC channel.
Hit compound characterization: Compounds that were identified as potential hits were purchased (if available) and retested for verification. […] Compounds that produced a response in a dose-dependent manner were further tested for a time-dependent response. Compound dose-response curves were performed by dispensing 15 μl of a 4× stock solution into 384-well plates containing 15 μl of assay medium (see above). Thirty-five animals were sorted into each well bringing the volume to ˜60 μl. The final compound concentrations in each well varied from 0-100 μM. Assay plates were incubated in a 22° C. incubator for 24 or 48 hours. Each compound was tested in quadruplicate in at least 2 independent experiments.
Statistical evaluation: Statistical evaluation of data was performed using Prism® (Graphpad Software). The significance of actual and predicted data in FIGS. 12, 14 and 15 was determined using a linear regression analysis and comparing the slope and goodness-of-fit (r2) values. Statistical significance of the spot count, spot area and spot intensity values between N2 (wild-type) and various transgenic lines in FIG. 13 and dose-response in FIG. 17 was determined using an unpaired, one-tailed, Student's t-test.
Compound screen: To test the HCS protocol, a pilot drug screen was performed using the library of pharmacologically active compounds (LOPAC1280™ 1280 compounds). Tight gating parameters for total fluorescence were used to sort 35 young adult Pnhx2sGFP::ATZ animals into wells of 384-well plates containing […] of a LOPAC compound and 0.5% DMSO. Pnhx2sGFP::ATZ animals incubated with 0.5% DMSO served as untreated controls and were placed in the first-two and last-two columns of each plate. In a representative experiment, plate 1 of the LOPAC library was set-up for screening on day 1, and 3 other plates were set-up on the next day. After 24 incubation at 25° C., animals were immobilized by the addition of NaAz and placed in the ArrayScan VTI for automated imaging. To examine for systematic errors, the raw data (total spot area/animal) were depicted as a plate-well scatter plot (FIG. 17A). […] This difference reflects a wider sort-window used to collect animals on day 1 in comparison to that used on day 2. As the average values of the negative controls and that of the sample wells were similar, we combined the control and samples wells for normalization and to identify potential hits using the z-score (FIG. 17B). The ArrayScan VTI reads microtiter plates by rows, alternating from left-to-right, and then right-to-left. For some assays, we noted that the control fluorescence values would drift upwards slightly in rows towards the bottom of the plate. This drift appeared to correlate with an increase in chamber temperature during the scanning period and was minimized by cooling the chamber with a fan or shortening the read times by using 2.5× objective with a 0.6 coupler. Nonetheless, intra-plate variation was controlled for by presenting the data as a B-score (FIG. 17C). […]

[2] = tested on: sGFP::ATZ; assay: LOPAC library high-content primary screen for sGFP::ATZ accumulation in transgenic animals; format: in vivo, C. elegans; settings: for Rank-score: 24 h
[3] = among compounds that decreased ATZ accumulation, based on relative rank-scores
[4] = average of compound rankings by ascending B-score from two independent screens, 50 μM, <110 decreased, >1225 increased sGFP::ATZ inclusions
[5] = among compounds that increased ATZ accumulation, based on relative rank-scores

Compound	Overall rank-order [2, 3]	Rank-score [2, 4]	also measured
5′-3′2,3-dicarboxy-2,3-dimethyl-1,4-epoxycyclohexane [cantharidic acid]	22	79.0	concentration at which an anti-protein aggregate effect was achieved ([1]; C. elegans assay): 100 µM; degradation of aggregated ATZ protein [1]: able to promote degradation of aggregated ATZ protein; dose-dependent response [1]: cantharidic acid^c
NCCc1c[nH]c2ccc(C(N)=O)cc12.O=C(O)/C=C\C(=O)O [5-carboxamidotryptamine maleate]	29	95.5	–
CCN(CC)C(C)C(=O)N1c2ccccc2Sc2ccccc21.Cl (stereo not drawn) [10-(alpha-diethylaminopropionyl)-phenothiazine hydrochloride]	21	75.5	–
CC(C)C[C@H]1C(=O)N2CCC[C@H]2[C@]2(O)O[C@](NC(=O)[C@@H]3C=C4c5cccc6[nH]c(Br)c(c56)C[C@H]4N(C)C3)(C(C)C)C(=O)N12.CS(=O)(=O)O [(+)-bromocriptine methanesulfonate]	–	1240.5	Overall rank-order [2, 5]: 8
CS(=O)(=O)O.Cc1c(C(=O)c2cccc3ccccc23)c2cccc3c2n1[C@H](CN1CCOCC1)CO3 [(R)-(+)-WIN 55,212-2 mesylate]	–	1231.0	Overall rank-order [2, 5]: 14
C[N+]1(C)CCc2cc3c(cc2[C@H]1[C@@H]1OC(=O)c2c1ccc1c2OCO1)OCO3.[Br-] [(−)-bicuculline methbromide, 1(S), 9(R)]	26	89.5	–
CCN1CCc2nc(N)oc2CC1.Cl.Cl [B-HT 933 dihydrochloride]	32	105.5	dose-dependent response [1]: B-HT 933 dihydrochloride^d
COc1[nH]c2ccc(F)cc2c1C(=O)OCC1CCN(CCNS(C)(=O)=O)CC1.NS(=O)(=O)O [GR 125487 sulfamate salt]	4	24.0	–
CN(C)c1cc2c(Nc3ccc4c(cnn4Cc4ccccc4)c3)ncnc2cn1 [GW2974]	–	1263.0	Overall rank-order [2, 5]: 1
O=S(=O)(c1cccc2cnccc12)N1CCNCC1 [HA-100]	10	52.5	–
COc1cc(OC)c(C=C2C(O)=Nc3ccccc32)c(OC)c1 [IC 261]	–	1253.5	Overall rank-order [2, 5]: 5
CCCC(=O)NCCc1c2n(c3ccc(OC)cc13)Cc1ccccc1-2 [IIK7]	–	1236.5	Overall rank-order [2, 5]: 11
CCCCOC(=O)NS(=O)(=O)c1sc(CC(C)C)cc1-c1ccc(Cn2c(CC)nc3c(C)cc(C)nc32)cc1 [L-162,313]	–	1238.0	Overall rank-order [2, 5]: 9
Cc1c(CC(C)(C)C(=O)O)n(Cc2ccc(Cl)cc2)c2ccc(F)cc12 [L-655,240]	3	10.5	–
O=c1[nH]c2cc(Cl)ccc2c(O)c1-c1cccc(Oc2ccccc2)c1 [L-701,324]	12	57.5	–
C[C@](N)(Cc1ccc(O)c(O)c1)C(=O)O [L-alpha-methyl DOPA]	18	72.5	–
COc1cccc(C(=O)NCCN2CCN(c3ccc(Cl)cc3)CC2)c1 [N-(2-[4-(4-Chlorophenyl)piperazin-1-yl]ethyl)-3-methoxybenzamide]	8	41.5	–
CCCN(CCC)[C@H]1CCc2c(F)ccc(O)c2C1.Cl [S(−)-UH-301 hydrochloride]	17	65.0	–
Cn1ccc2cc3c(cc21)CCN3C(=O)Nc1cccnc1 [SB 206553 hydrochloride]	11	56.0	–

Compound	Overall rank-order [2, 3]	Rank-score [2, 4]	also measured
Cc1nc(-c2ccc(-c3ccc(C(=O)N4CCc5cc6c(cc54)C4(CCN(C)CC4)CO6)cc3)c(C)c2)no1 [SB 224289 hydrochloride]	–	1255.0	Overall rank-order [2, 5]: 3
C#C[C@]1(O)CC[C@H]2[C@@H]3CCC4=Cc5nc6nc7ccccc7n6cc5C[C@]4(C)[C@H]3CC[C@@]21C [WIN 62,577]	–	1233.5	Overall rank-order [2, 5]: 12
Cl.N[C@@H](CCl)C(=O)O [beta-chloro-L-alanine hydrochloride]	16	61.5	–
CO[C@@]1(NC(=O)CSCC#N)C(=O)N2C(C(=O)O)=C(CSc3nnnn3C)CS[C@@H]21 [cefmetazole sodium]	9	51.0	dose-dependent response [1]: cefmetazole sodium^d
CC1=C(C(=O)O)N2C(=O)[C@@H](NC(=O)[C@H](N)C3=CCC=CC3)[C@H]2SC1 [cephradine]	27	90.0	–
Cl.Cl.OCCN1CCN(CC/C=C2/c3ccccc3Sc3ccc(C(F)(F)F)cc32)CC1 [cis-(Z)-flupenthixol dihydrochloride]	20	74.0	–
Clc1ccccc1C(c1ccccc1)(c1ccccc1)n1ccnc1 [clotrimazole]	–	–	Overall rank-order [2]: 4; Rank-score ([2]; 50 µM): 1255.0
CN(C)CCC=C1c2ccccc2COc2ccccc21 [doxepin hydrochloride]	–	–	dose-dependent response [1]: doxepin hydrochloride^d; Overall rank-order [2]: 15; Rank-score ([2]; 50 µM): 61.0
Cc1cnc(C(=O)NCCc2ccc(S(=O)(=O)NC(=O)NC3CCCCC3)cc2)cn1 [glipizide]	–	1234.0	dose-dependent response [1]: glipizide^d; Overall rank-order [2, 5]: 12
CN[C@@H]1C[C@@H](c2ccc(Cl)c(Cl)c2)c2ccccc21 [indatraline hydrochloride]	28	93.0	–
O=C1Nc2ccccc2/C1=C1/Nc2ccccc2/C1=N\O [indirubin-3′-oxime]	25	85.0	–
NCc1cc(=O)[nH]o1 [muscimol hydrobromide]	5	28.0	–
NC(=Nc1ccccc1)NC(=O)c1nc(Cl)c(N)nc1N [phenamil methanesulfonate]	13	57.5	dose-dependent response [1]: phenamil methanesulfonate^d
CN1CCN(CCCN2c3ccccc3Sc3ccc(Cl)cc32)CC1 [prochlorperazine dimaleate]	31	103.5	–
COc1ccc(C2CNC(=O)C2)cc1OC1CCCC1 (centres unmarked) [rolipram]	14	58.0	–
CC(=O)c1c(O)c(C)c(O)c(Cc2c(O)c3c(c(C(=O)/C=C/c4ccccc4)c2O)OC(C)(C)C=C3)c1O [rottlerin]	–	1229.5	dose-dependent response [1]: rottlerin^c; Overall rank-order [2, 5]: 15
CC/C(=C(\c1ccccc1)c1ccc(OCCN(C)C)cc1)c1ccccc1 [tamoxifen citrate, (Z)-2-[4-(1,2-diphenylbut-1-enyl)phenoxy]-N,N-dimethylethylamine]	24	83.5	degradation of aggregated ATZ protein [1]: able to promote degradation of aggregated ATZ protein; effect on sGFP::ATZ accumulation ([1]; dose-response, 0-100 μM): dose-dependant decrease in sGFP::ATZ accumulation; dose-dependent response [1]: tamoxifen citrate^c
N#CC(C#N)=C(N)/C(C#N)=C/c1ccc(O)cc1 [tyrphostin AG 112]	30	98.0	–

Source: US9820990B2, “Methods of treating disorders associated with protein aggregation” (University of Pittsburgh—Of the Commonwealth System of …, priority 2009, dated 2017)
